One experiment has as its target KRas G12C (Homo sapiens, UniProt P01116, C118S/C51S/C80L/G12C). Put plainly: KRas G12C Modification Assay (LCMS detection of covalent adduct). The settings on record: normalized percent of control; tested at 5 μM concentration for 3 hours. It is filed as binding. A digest of the protocol:
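Cys-light KRas G12C mutant protein incubated with compound in K-Ras assay buffer, reactions quenched at set time points with 25 mM acetic acid and analysed by intact-protein LC/MS on a C-3 column. Deconvoluted mass heights expressed as percent of control (POC) relative to compound-free protein.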

The test system of experiment [1] is NCI-H358 cells (express KRas G12C), Phospho-ERK. Put plainly: Cellular inhibition of KRas G12C: Phospho-ERK in NCI-H358 cells. The settings on record: Homo sapiens, pERK(Thr202/Tyr204) normalized with GAPDH, NCI-H358 cells, 3 hours, read-out: IC50. The experiment is classed as cell-based. A digest of the protocol:
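IC50 derived by 4-parameter fit of GAPDH-normalized pERK(Thr202/Tyr204) signal, as percent of DMSO control. Signal came from in-cell immunodetection with infrared secondaries after 3 h compound exposure of KRas G12C NCI-H358 cells at 0.5% DMSO.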

Like-named read-outs stand apart in the source and are kept apart here.

With `C=CC(=O)N1CCN(c2nc(N3CC(N(C)C)C3)nc3c2CCN(c2cc(O)cc4ccccc24)C3)CC1` [Example 128, 1-(4-(2-(3-(dimethylamino)azetidin-1-yl)-7-(3-hydroxynaphthalen-1-yl)-5,6,7,8-tetrahydropyrido[3,4-d]pyrimidin-4-yl)piperazin-1-yl)prop-2-en-1-one], the POC entry on KRas G12C is “C (“C”>50% POC)”. In addition, in experiment [1] (NCI-H358, 3 h), the IC50 was > 1000 nM.

Turning to `C=CC(=O)N1CCN(c2nc(O[C@H](C)[C@H]3CCCN3C)nc3c2CCN(c2cc(O)cc4ccccc24)C3)CC1` [Example 129, 1-[4-[7-(3-hydroxy-1-naphthyl)-2-[(1R)-1-[(2R)-1-methylpyrrolidin-2-yl]ethoxy]-6,8-dihydro-5H-pyrido[3,4-d]pyrimidin-4-yl]piperazin-1-yl]prop-2-en-1-one], the POC entry on KRas G12C was “C (“C”>50% POC)”. For the same molecule, in experiment [1] (NCI-H358, 3 h), the IC50 is 0.1 to 1000 nM.

Take `C=CC(=O)N1CCN(c2nc(O[C@@H](C)[C@@H]3CCCN3C)nc3c2CCN(c2cc(O)cc4ccccc24)C3)CC1` [Example 130, 1-(4-(7-(3-hydroxynaphthalen-1-yl)-2-((S)-1-((S)-1-methylpyrrolidin-2-yl)ethoxy)-5,6,7,8-tetrahydropyrido[3,4-d]pyrimidin-4-yl)piperazin-1-yl)prop-2-en-1-one]: the POC result at KRas G12C was “C (“C”>50% POC)”. In experiment [1] (NCI-H358, 3 h), the IC50 was in the range of 0.1 to 1000 nM.

In the case of `C=CC(=O)N1CCN(c2nc(O[C@H](C)CN(C)CC)nc3c2CCN(c2cc(O)cc4ccccc24)C3)CC1` [Example 131, 1-[4-[2-[(1R)-2-[ethyl(methyl)amino]-1-methyl-ethoxy]-7-(3-hydroxy-1-naphthyl)-6,8-dihydro-5H-pyrido[3,4-d]pyrimidin-4-yl]piperazin-1-yl]prop-2-en-1-one], on KRas G12C, the POC entry is “C (“C”>50% POC)”. Moreover, in experiment [1], the concentration for half-maximal inhibition (IC50) fell in the range of 0.1 to 1000 nM.

As for `C=CC(=O)N1CCN(c2nc(OCC3CCN(C4CCCCC4)C3)nc3c2CCN(c2cc(O)cc4ccccc24)C3)CC1` (stereo not drawn) [Example 132, 1-[4-[2-[(1-cyclohexylpyrrolidin-3-yl)methoxy]-7-(3-hydroxy-1-naphthyl)-6,8-dihydro-5H-pyrido[3,4-d]pyrimidin-4-yl]piperazin-1-yl]prop-2-en-1-one], on KRas G12C, the POC result was “C (“C”>50% POC)”. Moreover, the IC50 in experiment [1] (NCI-H358, 3 h) lay within 0.1 to 1000 nM.

`C=CC(=O)N1CCN(c2nc(NCCCN3CCOCC3)nc3c2CCN(c2cc(O)cc4ccccc24)C3)CC1` [Example 133, 1-[4-[7-(3-hydroxy-1-naphthyl)-2-(3-morpholinopropylamino)-6,8-dihydro-5H-pyrido[3,4-d]pyrimidin-4-yl]piperazin-1-yl]prop-2-en-1-one]: the POC entry at KRas G12C is given as “C (“C”>50% POC)”. For the same molecule, the IC50 in experiment [1] is > 1000 nM.

Take `C=CC(=O)N1CCN(c2nc(OCCCN3CCN(C(C)=O)CC3)nc3c2CCN(c2cc(O)cc4ccccc24)C3)CC1` [Example 135, 1-[4-[2-[3-(4-acetylpiperazin-1-yl)propoxy]-7-(3-hydroxy-1-naphthyl)-6,8-dihydro-5H-pyrido[3,4-d]pyrimidin-4-yl]piperazin-1-yl]prop-2-en-1-one]: the POC result at KRas G12C is “C (“C”>50% POC)”. Moreover, the IC50 in experiment [1] (NCI-H358, 3 h) fell in the range of 0.1 to 1000 nM.

On to `C=CC(=O)N1CCN(c2nc(OCCN3CCC(OC)C3)nc3c2CCN(c2cc(O)cc4ccccc24)C3)CC1` (stereo not drawn) [Example 136, 1-[4-[7-(3-hydroxy-1-naphthyl)-2-[2-(3-methoxypyrrolidin-1-yl)ethoxy]-6,8-dihydro-5H-pyrido[3,4-d]pyrimidin-4-yl]piperazin-1-yl]prop-2-en-1-one], for which the POC result at KRas G12C is recorded as “C (“C”>50% POC)”. Besides, the IC50 in experiment [1] (NCI-H358, 3 h) is > 1000 nM.

For `C=CC(=O)N1CCN(c2nc(OCCCN3CCC(OC)C3)nc3c2CCN(c2cc(O)cc4ccccc24)C3)CC1` (stereo not drawn) [Example 137, 1-[4-[7-(3-hydroxy-1-naphthyl)-2-[3-(3-methoxypyrrolidin-1-yl)propoxy]-6,8-dihydro-5H-pyrido[3,4-d]pyrimidin-4-yl]piperazin-1-yl]prop-2-en-1-one], the POC entry at KRas G12C is recorded as “C (“C”>50% POC)”. Further, in experiment [1] (NCI-H358, 3 h), the IC50 is > 1000 nM.

Consider `C=CC(=O)N1CCN(c2nc(OCCN3CC(F)(F)C3)nc3c2CCN(c2cc(O)cc4ccccc24)C3)CC1` [Example 138, 1-[4-[2-[2-(3,3-difluoroazetidin-1-yl)ethoxy]-7-(3-hydroxy-1-naphthyl)-6,8-dihydro-5H-pyrido[3,4-d]pyrimidin-4-yl]piperazin-1-yl]prop-2-en-1-one], for which the POC result at KRas G12C is “C (“C”>50% POC)”. The IC50 in experiment [1] (NCI-H358, 3 h) is > 1000 nM.

`C=CC(=O)N1CCN(c2nc(OCCN3CCC(F)(F)C3)nc3c2CCN(c2cc(O)cc4ccccc24)C3)CC1` [Example 139, 1-[4-[2-[2-(3,3-difluoropyrrolidin-1-yl)ethoxy]-7-(3-hydroxy-1-naphthyl)-6,8-dihydro-5H-pyrido[3,4-d]pyrimidin-4-yl]piperazin-1-yl]prop-2-en-1-one]: the POC result at KRas G12C was “C (“C”>50% POC)”. Further, the IC50 in experiment [1] (NCI-H358, 3 h) was > 1000 nM.

Regarding `C=CC(=O)N1CCN(c2nc(OCC3CCN(CC(=O)N(C)C)C3)nc3c2CCN(c2cc(O)cc4ccccc24)C3)CC1` (stereo not drawn) [Example 140, 2-[3-[[7-(3-hydroxy-1-naphthyl)-4-(4-prop-2-enoylpiperazin-1-yl)-6,8-dihydro-5H-pyrido[3,4-d]pyrimidin-2-yl]oxymethyl]pyrrolidin-1-yl]-N,N-dimethyl-acetamide], on KRas G12C, the POC entry was “C (“C”>50% POC)”. Moreover, the IC50 in experiment [1] (NCI-H358, 3 h) is > 1000 nM.

With `C=CC(=O)N1CCN(c2nc(OCC3CCN(CCO)C3)nc3c2CCN(c2cc(O)cc4ccccc24)C3)CC1` (stereo not drawn) [Example 141, 1-[4-[2-[[1-(2-hydroxyethyl)pyrrolidin-3-yl]methoxy]-7-(3-hydroxy-1-naphthyl)-6,8-dihydro-5H-pyrido[3,4-d]pyrimidin-4-yl]piperazin-1-yl]prop-2-en-1-one], the POC result at KRas G12C is listed as “C (“C”>50% POC)”. Further, the IC50 in experiment [1] (NCI-H358, 3 h) was > 1000 nM.

As to `C=CC(=O)N1CCN(c2nc(OCCO)nc3c2CCN(c2cc(O)cc4ccccc24)C3)CC1` [Example 142, 1-[4-[2-(2-hydroxyethoxy)-7-(3-hydroxy-1-naphthyl)-6,8-dihydro-5H-pyrido[3,4-d]pyrimidin-4-yl]piperazin-1-yl]prop-2-en-1-one], on KRas G12C, the POC entry is listed as “C (“C”>50% POC)”. Further, in experiment [1] (NCI-H358, 3 h), the IC50 was > 1000 nM.

With `C=CC(=O)N1CCN(c2nc(OCC(O)CO)nc3c2CCN(c2cc(O)cc4ccccc24)C3)CC1` (stereo not drawn) [Example 143, 1-[4-[2-(2,3-dihydroxypropoxy)-7-(3-hydroxy-1-naphthyl)-6,8-dihydro-5H-pyrido[3,4-d]pyrimidin-4-yl]piperazin-1-yl]prop-2-en-1-one], the POC result at KRas G12C is given as “C (“C”>50% POC)”. In experiment [1] (NCI-H358, 3 h), the IC50 is > 1000 nM.

Take `C=CC(=O)N1CCN(c2nc(OC[C@@H]3CCCN3CCOC)nc3c2CCN(c2cc(O)cc4ccccc24)C3)CC1` [Example 144, (5)-1-(4-(7-(3-hydroxynaphthalen-1-yl)-2-((1-(2-methoxyethyl)pyrrolidin-2-yl)methoxy)-5,6,7,8-tetrahydropyrido[3,4-d]pyrimidin-4-yl)piperazin-1-yl)prop-2-en-1-one]: the POC result at KRas G12C was “C (“C”>50% POC)”. For the same molecule, the IC50 in experiment [1] (NCI-H358, 3 h) lay in the range of 0.1 to 1000 nM.

With `C=CC(=O)N1CCN(c2nc(OC[C@@H]3CCCN3C(C)C)nc3c2CCN(c2cc(O)cc4ccccc24)C3)CC1` [Example 145, 1-[4-[7-(3-hydroxy-1-naphthyl)-2-[[(2S)-1-isopropylpyrrolidin-2-yl]methoxy]-6,8-dihydro-5H-pyrido[3,4-d]pyrimidin-4-yl]piperazin-1-yl]prop-2-en-1-one], the POC result on KRas G12C is reported as “C (“C”>50% POC)”. The IC50 in experiment [1] (NCI-H358, 3 h) was 0.1 to 1000 nM.

As for `C=CC(=O)N1CCN(c2nc(OC[C@@H]3CCNC3)nc3c2CCN(c2cc(O)cc4ccccc24)C3)CC1` [Example 146, 1-[4-[7-(3-hydroxy-1-naphthyl)-2-[[(3R)-pyrrolidin-3-yl]methoxy]-6,8-dihydro-5H-pyrido[3,4-d]pyrimidin-4-yl]piperazin-1-yl]prop-2-en-1-one], the POC entry on KRas G12C was “B (“B”>25% POC−≤50% POC)”. Further, the IC50 in experiment [1] (NCI-H358, 3 h) was > 1000 nM.

For the molecule `C=CC(=O)N1CCN(c2nc(OC[C@@H]3CCCN3C)nc3c2CCN(c2cccc4ccccc24)C3)CC1CC#N` (stereo partly drawn) [Example 147, 2-[4-[2-[[(2S)-1-methylpyrrolidin-2-yl]methoxy]-7-(1-naphthyl)-6,8-dihydro-5H-pyrido[3,4-d]pyrimidin-4-yl]-1-prop-2-enoyl-piperazin-2-yl]acetonitrile], the POC result on KRas G12C was “C (“C”>50% POC)”. Besides, the IC50 in experiment [1] is 0.1 to 1000 nM.

As to `C=CC(=O)N1CCN(c2nc(OC[C@@H]3CCCN3C)nc3c2CCN(c2c(C)ccc4[nH]ncc24)C3)CC1CC#N` (stereo partly drawn) [Example 148, 2-[4-[7-(5-methyl-1H-indazol-4-yl)-2-[[(2S)-1-methylpyrrolidin-2-yl]methoxy]-6,8-dihydro-5H-pyrido[3,4-d]pyrimidin-4-yl]-1-prop-2-enoyl-piperazin-2-yl]acetonitrile], the POC entry at KRas G12C is “C (“C”>50% POC)”. Moreover, the IC50 in experiment [1] is 0.1 to 1000 nM.

On to `C=CC(=O)N1CCN(c2nc(OC[C@@H]3CCCN3C)nc3c2CCN(c2c(C(F)(F)F)ccc4[nH]ncc24)C3)CC1CC#N` (stereo partly drawn) [Example 149, 2-[4-[2-[[(2S)-1-methylpyrrolidin-2-yl]methoxy]-7-[5-(trifluoromethyl)-1H-indazol-4-yl]-6,8-dihydro-5H-pyrido[3,4-d]pyrimidin-4-yl]-1-prop-2-enoyl-piperazin-2-yl]acetonitrile], for which, on KRas G12C, the POC entry is on record as “B (“B”>25% POC−≤50% POC)”. In experiment [1], the IC50 was in the range of 0.1 to 1000 nM.

By IC50 is commonly meant the concentration at which inhibition is half-maximal.

(Values after US10125134B2 (Mirati Therapeutics, Inc., priority 2016, dated 2018).)
